# In patent US5973204A (priority 1997, dated 1999):
# Tests used:
# glycine receptors = biological target: T1, glycine receptors (Rattus norvegicus, UniProt P07727); experiment: binding tests, affinity to glycine receptors (% displacement)
# T1 construct: from tissue; host or cells: rat spinal cord / brainstem synaptic membranes (inferred from the cited method)
# Source text: The compounds of the invention have shown in binding tests a higher affinity to glycine receptors (Table I) than a structurally similar compound, i.e. thiocolchicoside.
# The interaction of the compositions of the invention with their receptors has been evaluated according to the procedure by A. B. Young and S. H. Snyder reported in Proc. Natl. Acad. Sci U.S.A. 71, 4002, 1974.
# [1] = system: polysynaptic reflexes induced by strychnine; experiment: inhibition of the polysynaptic reflexes induced by strychnine in rabbits; type: in vivo, rabbit; details: for reduction of polysynaptic reflexes / removal of the potentiation of strychnine-induced reflexes: rabbits, 1 mg/kg intramuscularly
# Source text: The inhibition of the polysynaptic reflexes induced by strychnine in rabbits has been studied for the in vivo tests.
# [2] = acute toxicity (DL50) in the mouse; details: in vivo, iv
# Experimental: The DL50 of the compounds I-III is, in fact, higher than 30 mg/kg i.v. in the mouse, the DL50 of thiocolchicoside being 7.5 mg/kg.
# T1 sequence (P07727 29-457): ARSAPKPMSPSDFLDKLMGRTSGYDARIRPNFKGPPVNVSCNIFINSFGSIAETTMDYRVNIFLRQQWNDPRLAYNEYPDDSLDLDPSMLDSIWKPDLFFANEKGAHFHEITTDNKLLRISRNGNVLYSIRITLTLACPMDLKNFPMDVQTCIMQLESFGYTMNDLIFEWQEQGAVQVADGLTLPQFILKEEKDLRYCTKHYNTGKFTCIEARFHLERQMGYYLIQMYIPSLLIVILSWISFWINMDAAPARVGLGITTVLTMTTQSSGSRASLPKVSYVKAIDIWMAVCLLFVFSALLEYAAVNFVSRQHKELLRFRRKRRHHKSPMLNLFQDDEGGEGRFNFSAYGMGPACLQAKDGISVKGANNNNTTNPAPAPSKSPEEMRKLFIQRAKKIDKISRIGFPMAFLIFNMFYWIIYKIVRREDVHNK
# T1 sequence (P20781 23-496 partner): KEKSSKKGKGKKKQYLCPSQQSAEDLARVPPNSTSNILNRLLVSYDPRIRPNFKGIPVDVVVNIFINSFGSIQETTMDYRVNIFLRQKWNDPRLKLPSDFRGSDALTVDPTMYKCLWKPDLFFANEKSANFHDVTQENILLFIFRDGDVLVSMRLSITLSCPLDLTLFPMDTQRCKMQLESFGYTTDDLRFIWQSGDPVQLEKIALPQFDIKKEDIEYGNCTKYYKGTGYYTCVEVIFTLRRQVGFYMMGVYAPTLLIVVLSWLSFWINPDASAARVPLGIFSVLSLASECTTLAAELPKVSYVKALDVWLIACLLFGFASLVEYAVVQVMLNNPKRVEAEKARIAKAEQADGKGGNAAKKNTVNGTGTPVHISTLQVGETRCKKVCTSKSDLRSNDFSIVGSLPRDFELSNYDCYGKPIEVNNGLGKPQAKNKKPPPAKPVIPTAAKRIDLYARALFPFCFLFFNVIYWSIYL
SMILES,inhibition at 0.1 µM (glycine receptors),inhibition at 1 µM (glycine receptors),reduction of polysynaptic reflexes [1],removal of the potentiation of strychnine-induced reflexes [1],inhibition at 0.5 µM (glycine receptors; 0.5 μM),LD50 [2],"minimal effective dose at 1 mg/kg ([1]; Oryctolagus cuniculus, read-out: minimum dose to obtain comparable effects)"
"COc1c(OCC2CO2)cc2c(c1OC)-c1ccc(SC)c(=O)cc1[C@@H](NC(C)=O)CC2 (some centres unmarked) [Compound I, 3-demethyl-3-glycidylthiocolchicine]",40%,85%,50%,removing completely,,,
"COc1c(OCC(O)CO)cc2c(c1OC)-c1ccc(SC)c(=O)cc1[C@@H](NC(C)=O)CC2 (some centres unmarked) [Compound II, 3-demethyl-3-(2,3-dihydroxyrpropyl)thiocolchicine]",35%,65%,60%,removing completely,,,
"COc1c(OCC(O)CN)cc2c(c1OC)-c1ccc(SC)c(=O)cc1[C@@H](NC(C)=O)CC2 (some centres unmarked) [Compound III, 3-demethyl-3-(3-amino-2-hydroxypropyl)thiocolchicine]",50%,75%,65%,removing completely,,,
"COc1c(O[C@@H]2O[C@H](CO)[C@@H](O)[C@H](O)[C@H]2O)cc2c(c1OC)-c1ccc(SC)c(=O)cc1[C@@H](NC(C)=O)CC2 [thiocolchicoside, 3-demethyl-thiocolchicine glucoside, reference compound]",20%,70%,,,45%,7.5 mg/kg,≥ 5 mg/kg
